Results on two compounds are retold here after publication PMC10709440, “High-throughput ligand profile characterization in novel cell lines expressing seven heterologous insect olfactory receptors for the detection of volatile plant biomarkers” (Scientific Reports, 2023).

The target in assay [1] is T1, Drosophila OR10a (Drosophila melanogaster, UniProt Q9VYZ1).
T1 construct: expressed in transfected cells
T1 sequence (Q9VYZ1 1-406): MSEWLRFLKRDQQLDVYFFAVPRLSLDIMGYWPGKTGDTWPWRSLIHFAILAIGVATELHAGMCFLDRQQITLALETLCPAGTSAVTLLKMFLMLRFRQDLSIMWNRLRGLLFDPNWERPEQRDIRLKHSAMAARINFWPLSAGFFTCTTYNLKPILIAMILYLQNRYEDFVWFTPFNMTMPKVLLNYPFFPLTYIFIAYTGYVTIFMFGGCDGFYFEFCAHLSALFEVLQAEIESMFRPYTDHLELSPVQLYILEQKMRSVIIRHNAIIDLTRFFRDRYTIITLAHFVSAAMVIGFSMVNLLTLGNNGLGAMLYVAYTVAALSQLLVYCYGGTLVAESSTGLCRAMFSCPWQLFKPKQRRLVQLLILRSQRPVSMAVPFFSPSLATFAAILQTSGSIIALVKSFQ
T1 sequence (Q9VNB5 1-486 partner): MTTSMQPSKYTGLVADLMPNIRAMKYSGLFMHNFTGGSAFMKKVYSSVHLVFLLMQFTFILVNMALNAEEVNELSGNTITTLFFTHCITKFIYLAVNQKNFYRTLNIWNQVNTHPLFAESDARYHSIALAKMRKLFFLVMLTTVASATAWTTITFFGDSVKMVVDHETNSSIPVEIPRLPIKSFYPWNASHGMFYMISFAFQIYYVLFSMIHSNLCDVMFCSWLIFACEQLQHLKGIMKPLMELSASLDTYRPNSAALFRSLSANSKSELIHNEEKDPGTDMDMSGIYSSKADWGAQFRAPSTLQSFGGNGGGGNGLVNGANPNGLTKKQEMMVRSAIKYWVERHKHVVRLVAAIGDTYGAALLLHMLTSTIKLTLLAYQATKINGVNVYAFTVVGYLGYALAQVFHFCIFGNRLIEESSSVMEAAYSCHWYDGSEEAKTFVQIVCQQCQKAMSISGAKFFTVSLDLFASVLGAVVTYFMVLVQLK
Description: Calcium ion fluorescence (GCaMP6) assay, OR10a stable HEK293 cell line. It is filed as cell-based. As to conditions: for activation at 1 µM: HEK293, read-out: OR10a Average response (VUAA1-normalized), 1 μM VOC; for activation at 1 µM / activation at 10 µM / activation at 100 µM: 50 μM VUAA1 = 1, responses not exceeding 0.05 considered 0; for activation at 10 µM: HEK293, read-out: OR10a Average response (VUAA1-normalized), 10 μM VOC; for activation at 100 µM: HEK293, read-out: OR10a Average response (VUAA1-normalized), 100 μM VOC; for OR10a response (VUAA1-normalized) at 1 μM / OR10a response (VUAA1-normalized) at 10 μM / OR10a response (VUAA1-normalized) at 100 μM: OR10a cell line; for OR10a response (VUAA1-normalized) at 1 μM: VOC concentration 1 μM; for OR10a response (VUAA1-normalized) at 10 μM: VOC concentration 10 μM; for OR10a response (VUAA1-normalized) at 100 μM: VOC concentration 100 μM; for DF norm AVERAGE OR10a: threshold 0.05, below shown as 0. The procedure: (§1) These VUAA1 normalized ∆F values were used to compare the different receptors and ligands.
(§2) The concentration-dependent effect of the reference ligands on their cognate cell lines was examined in more detail. Twelve different ligand concentrations were measured on each cell line in an overall 0.01 μM to 100 μM concentration range with 5 repetitions with three technical replicates each time.
(§3) Twelve thousand to 18,000 cells were plated into each well of a black wall, transparent bottom 384-well microplate (Greiner) 48 h or 72 h before the measurements and were simultaneously treated with 1 μg/mL doxycycline. […] The plate has 24 columns, thus we could record responses in up to eight different cell lines in each plate. On the day of the experiment, the growth medium was replaced with 20 µL assay buffer/well (140 mM NaCl, 5 mM KCl, 2 mM CaCl2, 1 mM MgCl2, 5 mM HEPES-Na, 20 mM glucose, pH 7.3, 340 mOsm). […] Baseline fluorescence (F0) was recorded for 5 s, after which 7 µL VOC buffer (140 mM NaCl, 5 mM KCl, 2 mM CaCl2, 1 mM MgCl2, 5 mM HEPES-Na, 31 mM glucose, 0.1% DMSO, pH 7.3, 340 mOsm) was injected into each well in one row and the fluorescence response was recorded for an additional 30 s, at a rate of one read/sec. VOC solutions (VOC buffer with 4× concentration of the final measured VOC concentration, 9 µL/well was injected) were measured on the same wells in a second round with the same protocol. Each individual concentration of a specific VOC sample was recorded in three wells for the same cell line on the same microplate. The raw data were exported in xls file format, F0 and FMAX values, and the fluorescence intensity changes (∆F) were calculated in Excel (Microsoft) (Supplementary file Data summary.xlsx) using the following equation: ΔF=FMAX-F0/F0 (see also Fig. 1C). On each plate, we recorded the response of each cell line to 50 µM VUAA1. The average of these ∆F values of each cell line were used to calculate the VUAA1-normalized values for the rest of the plate, by dividing VOC response ∆F values by the average VUAA1 response ∆F value of the corresponding OR cell line. Each VOC-OR combination was measured three times as technical replicates. […] The average of these replicates were used as one ∆F and VUAA1-normalized ∆F in the following analysis.
(§4) In the next rows we tested the reference VOCs (or other VOCs known to activate the corresponding cell lines), in order to test if all cell lines are responsive. The remaining rows were used to test VOCs with unknown effect.
(§5) The recorded FMAX, F0, ∆F, VUAA1-normalized ∆F values, as well as the OR name, the name of the tested sample, and the final concentration for each well were copied into supplementary file Data summary.xlsx, that was used to summarize all the plates recorded. Here, the averages of the measurements were calculated for each receptor-VOC-concentration combination.

Assay [2] deals with T2, Drosophila OR47a (Drosophila melanogaster, UniProt P81921).
T2 construct: expressed in transfected cells
T2 sequence (P81921 1-385): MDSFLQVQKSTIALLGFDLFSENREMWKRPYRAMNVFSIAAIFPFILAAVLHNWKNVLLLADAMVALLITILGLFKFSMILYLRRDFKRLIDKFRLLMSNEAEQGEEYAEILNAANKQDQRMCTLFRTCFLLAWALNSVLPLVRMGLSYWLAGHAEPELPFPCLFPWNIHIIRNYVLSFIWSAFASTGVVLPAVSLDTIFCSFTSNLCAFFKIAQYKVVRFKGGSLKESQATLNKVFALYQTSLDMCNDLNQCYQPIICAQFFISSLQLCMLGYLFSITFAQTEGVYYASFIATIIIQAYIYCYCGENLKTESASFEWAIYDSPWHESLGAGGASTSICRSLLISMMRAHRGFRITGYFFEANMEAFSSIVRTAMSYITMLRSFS
T2 sequence (Q9VNB5 1-486 partner): T1 sequence (Q9VNB5 1-486 partner)
Description: Calcium ion fluorescence (GCaMP6) assay, OR47a stable HEK293 cell line. It counts as cell-based. The conditions noted are these: for OR47a response (VUAA1-normalized) at 1 μM / OR47a response (VUAA1-normalized) at 10 μM / OR47a response (VUAA1-normalized) at 100 μM / Average response: OR47a cell line; for OR47a response (VUAA1-normalized) at 1 μM: VOC concentration 1 μM; for OR47a response (VUAA1-normalized) at 10 μM: VOC concentration 10 μM; for OR47a response (VUAA1-normalized) at 100 μM: VOC concentration 100 μM; for Average response: mean of biological replicates; for DF norm AVERAGE OR47a: threshold 0.05, below shown as 0. The procedure: as §1, §2, §3, §4, §5

Setting [3] is: ligand concentration 1 (unit not given).
Setting [4] is: ligand concentration 10 (unit not given).
[5] abbreviates: ligand concentration 100 (unit not given).

As for `Cc1ccccc1C` [o-xylene], in assay [1], the activation at 1 µM turned out to be 0%, the activation at 10 µM worked out at 0%, the activation at 100 µM was found to be 0% and the “OR10a response (VUAA1-normalized) at 1 μM” value was 0.00. Further, in assay [1], the “OR10a response (VUAA1-normalized) at 10 μM” value was found to be 0.00 and the “OR10a response (VUAA1-normalized) at 100 μM” value is given as 0.00. Further, the “DF norm AVERAGE OR10a” value in assay [1] (setting [3]) is 0. Further, the “DF norm AVERAGE OR10a” value in assay [1] (setting [4]) came out at 0. For the same compound, in assay [1] (setting [5]), the “DF norm AVERAGE OR10a” value came to 0. For the same compound, in assay [2], the “OR47a response (VUAA1-normalized) at 1 μM” value is recorded as 0.00, the “OR47a response (VUAA1-normalized) at 10 μM” value turned out to be 0.00 and the “OR47a response (VUAA1-normalized) at 100 μM” value was 0.00. In assay [2] (odorant cc. 1 µM), the Average response is reported as 0.00. Besides, the Average response in assay [2] (odorant cc. 10 µM) was determined as 0.00. Also, in assay [2] (odorant cc. 100 µM), the Average response was determined as 0.00. For the same compound, in assay [2] (setting [3]), the “DF norm AVERAGE OR47a” value was found to be 0. Further, the “DF norm AVERAGE OR47a” value in assay [2] (setting [4]) is recorded as 0. The “DF norm AVERAGE OR47a” value in assay [2] (setting [5]) was 0.

Consider `C=C1CCC2(C(C)C)CC12` (stereo not drawn) [sabinene], for which, in assay [1], the activation at 1 µM was 0%, the activation at 10 µM is 0%, the activation at 100 µM was 3.23% and the “OR10a response (VUAA1-normalized) at 1 μM” value amounted to 0.00. Further, in assay [1], the “OR10a response (VUAA1-normalized) at 10 μM” value is given as 0.00 and the “OR10a response (VUAA1-normalized) at 100 μM” value was 0.00. Besides, the “DF norm AVERAGE OR10a” value in assay [1] (setting [3]) is on record as 0. In assay [1] (setting [4]), the “DF norm AVERAGE OR10a” value turned out to be 0. Besides, the “DF norm AVERAGE OR10a” value in assay [1] (setting [5]) is 0. In addition, in assay [2], the “OR47a response (VUAA1-normalized) at 1 μM” value was 0.00, the “OR47a response (VUAA1-normalized) at 10 μM” value was 0.00 and the “OR47a response (VUAA1-normalized) at 100 μM” value was 0.00. Also, in assay [2] (odorant cc. 1 µM), the Average response is listed as 0.00. The Average response in assay [2] (odorant cc. 10 µM) came out at 0.00. Moreover, the Average response in assay [2] (odorant cc. 100 µM) turned out to be 0.00. The “DF norm AVERAGE OR47a” value in assay [2] (setting [3]) came to 0. Also, the “DF norm AVERAGE OR47a” value in assay [2] (setting [4]) is reported as 0. For the same compound, the “DF norm AVERAGE OR47a” value in assay [2] (setting [5]) was determined as 0.
